Reference: a compilation of properties of binary mixtures (doi:10.1016/j.molliq.2020.113457)

Assay: xn = mol fraction of the nth substance listed
Conditions: 101 kPa

CCCC[n+]1ccn(C)c1.F[B-](F)(F)F + C=CC(=O)OC
x1 = 1
Conditions	speed of sound [m/s]	viscosity [mPa·s]
293.15 K	1576.9	127.6
298.15 K	1565.8	98.9
308.15 K	1542.7	58.4
318.15 K	1518	38.72

C=CC(=O)OC + CCCC[n+]1ccn(C)c1.F[B-](F)(F)F
Conditions	speed of sound [m/s]	viscosity [mPa·s]
293.15 K, x2 = 0	1204.7	0.502
293.15 K, x2 = 0.0694	1238.9	0.966
293.15 K, x2 = 0.1889	1296	3.853
293.15 K, x2 = 0.239	1318.8	6.24
293.15 K, x2 = 0.3354	1360.5	12.75
293.15 K, x2 = 0.4317	1399.7	21.82
293.15 K, x2 = 0.5005	1426	29.86
293.15 K, x2 = 0.5693	1451	39.21
293.15 K, x2 = 0.6532	1479.7	52.4
293.15 K, x2 = 0.737	1506.4	67.4
293.15 K, x2 = 0.7927	1523	78.5
293.15 K, x2 = 0.8484	1538.7	90.5
298.15 K, x2 = 0.0694	1218.7	0.725
298.15 K, x2 = 0.1387	1252.9	1.415
298.15 K, x2 = 0.1889	1276.8	2.577
298.15 K, x2 = 0.239	1300	4.295
298.15 K, x2 = 0.3354	1342.7	9.16
298.15 K, x2 = 0.4317	1382.7	16.07
298.15 K, x2 = 0.5005	1409.6	22.26
298.15 K, x2 = 0.5693	1435.3	29.5
298.15 K, x2 = 0.6532	1464.7	39.74
298.15 K, x2 = 0.737	1492.2	51.5
298.15 K, x2 = 0.7927	1509.3	60.2
298.15 K, x2 = 0.8484	1525.6	69.6
298.15 K, x2 = 0.9242	1546.4	83.5
303.15 K, x2 = 0	1162.3	0.428
303.15 K, x2 = 0.0694	1198.4	0.555
303.15 K, x2 = 0.1387	1233.4	–
303.15 K, x2 = 0.1889	1257.7	1.493
303.15 K, x2 = 0.239	1281.1	2.654
303.15 K, x2 = 0.5005	1393.8	16.05
303.15 K, x2 = 0.5693	1420.5	21.63
303.15 K, x2 = 0.6532	1451.2	29.58
303.15 K, x2 = 0.737	1479.5	38.8
303.15 K, x2 = 0.7927	1496.9	45.62
303.15 K, x2 = 0.8484	1514	53
303.15 K, x2 = 0.9242	1534.4	63.9
308.15 K, x2 = 0	1139.1	0.392
308.15 K, x2 = 0.0694	1176.1	0.448
308.15 K, x2 = 0.1387	1211.5	–
308.15 K, x2 = 0.1889	1236.2	–
308.15 K, x2 = 0.239	1260.5	–
308.15 K, x2 = 0.3354	1305.3	3.796
308.15 K, x2 = 0.4317	1347.7	7.6
308.15 K, x2 = 0.5005	1376.1	11.15
308.15 K, x2 = 0.5693	1404.1	15.41
308.15 K, x2 = 0.6532	1435.8	21.55
308.15 K, x2 = 0.737	1465.1	28.73
308.15 K, x2 = 0.7927	1483.3	34.08
308.15 K, x2 = 0.9242	1521	48.5
313.15 K, x2 = 0.0694	1155.4	0.378
313.15 K, x2 = 0.1889	1216.6	–
313.15 K, x2 = 0.3354	1286.1	2.165
313.15 K, x2 = 0.4317	1329.6	5.02
313.15 K, x2 = 0.5005	1359.4	7.79
313.15 K, x2 = 0.5693	1388.1	11.15
313.15 K, x2 = 0.6532	1420.6	16.05
313.15 K, x2 = 0.737	1452.4	21.85
313.15 K, x2 = 0.7927	1471.1	26.2
313.15 K, x2 = 0.8484	1488.1	30.93
313.15 K, x2 = 0.9242	1510.3	38.01
318.15 K, x2 = 0.0694	1134.5	0.355
318.15 K, x2 = 0.1387	1170.8	–
318.15 K, x2 = 0.1889	1195.7	–
318.15 K, x2 = 0.239	1220	–
318.15 K, x2 = 0.4317	1310.6	3.27
318.15 K, x2 = 0.5005	1341.6	5.53
318.15 K, x2 = 0.5693	1371.6	8.34
318.15 K, x2 = 0.737	1437.5	17.48
318.15 K, x2 = 0.7927	1457.2	21.23
318.15 K, x2 = 0.8484	1475.3	25.34
